Series [1] is described as follows: Cav-1 peptide solubility in Tris Buffered Saline, pH 7.51 (absorbance at 600 nm). In kind it is physicochemical. The settings on record: for UV (Abs) at dissolution / UV (Abs) after rest: absorbance at 600 nm, 50 mg in 5 mL TBS pH 7.51; for UV (Abs) at dissolution: immediately after dissolution for insoluble peptides, after 10 minutes for soluble peptides; for UV (Abs) after rest: again after 10 minutes (APi2348 15 min, APi2352 5 min, APi2353 15 min, APi2345 only after 20 min). The procedure:
In order to determine which peptides may be most soluble in a liquid formulation, 50 mg of each Cav-1 peptide was dissolved in 5 mL of Tris Buffered Saline, pH 7.51. Each sample was vortexed to help the sample dissolve completely. The absorbance at 600 nm was measured immediately after dissolution of the peptides for insoluble peptides, or after 10 minutes for soluble peptides. Absorbance was measured again after 10 minutes for insoluble peptides except for samples APi2348, APi2352, APi2353 which were measured a second time at 15 minutes, 5 minutes, or 15 minutes after dissolution, respectively.

In series [2] the test system is Idiopathic Pulmonary Fibrosis (IPF) cell line 2051. The series can be described thus: Western blot of SMA and tubulin in IPF cells treated with Cav-1 peptides. It is filed as cell-based. The settings on record: 2 days treatment, 10 uM peptide (LTI-03 10 and 90 uM), ImageJ ratio (FIG. 2). As to the method: Cav-1 peptides were dissolved in DMSO to make 10 mM stock solutions. 10 mM stock solutions of each peptide were then diluted in HBSS to make 900 μM working stock solutions. The DMSO resuspended polypeptides as well as the working stocks were stored at −20 deg C. For culture media, working stocks were added to DMEM culture media to a final concentration of 10 μM of the Cav-1 peptide.
Idiopathic Pulmonary Fibrosis (IPF) cell line 2051 was purchased and IPF cells from the fourth passage were seeded in 100 mm plates containing DMEM, 10% FBS, and 1% P/S. IPF cells were washed with 4 mL DMEM+1% P/S and serum starved overnight. Cells were then treated for 2 days with either 44 uL HBSS (negative control), 10 uM LTI-03 (SEQ ID NO: 2), 90 uM LTI-03 (positive control), 10 uM APi2350, 10 uM APi2354, 10 uM APi2355, 10 uM APi2356 or with 20 uL of DMSO (negative control).
After 2 days of treatment, cells were washed once in cold, sterile HBSS. HBSS was removed, and 150 uL of lysis buffer with protease inhibitor cocktail was added to the cells. Cells were incubated with lysis buffer for 10 minutes. Cell lysates were scraped from the plates and collected. Cell lysates were then sonicated twice. Following sonication, the lysates were centrifuged at 13,000 RPM for 20 minutes. Lysates were then flash frozen in liquid nitrogen, thawed, vortexed, and centrifuged again at 13,000 RPM for 30 minutes. The supernatant was then collected and the pellet was discarded. The concentration of cell lysates was then determined by BCA assay.
Western blots were performed to evaluate the presence the effects of treatments. Briefly, 12 ug of each lysate was run on a 10% polyacrylamide gel. The gel was then transferred to a membrane and washed. Primary antibodies against smooth muscle actin (SMA) and Tubulin Results of the western blot can be seen in FIG. 1. The treatment for each of the lysates in the pictured lanes are: 1: Untreated, 2: 10 μM LTI-03, 3: 90 μM LTI-03, 4: 10 μM APi2350, 5: 10 μM APi2354, 6: 10 μM APi 2355, 7: 10 μM APi2356, and 8: DMSO.
Western blots were photographed and analyzed with ImageJ to determine a ratio of smooth muscle actin to tubulin (FIG. 2).
For orientation: A western blot detects proteins with antibodies after separation by electrophoresis.

Series [3] relates to AEC2 cells of end-stage IPF precision cut lung slices. The series can be described thus: Lysotracker staining of AEC2 cells in end-stage IPF precision cut lung slices. It is filed as cell-based. The settings on record: end-stage IPF PCLS, daily treatment, staining on days 1, 2, 3, 5, and 7; 10, 100, or 500 μM. An excerpt:
(§1) To assess the effect of Cav-1 peptide APi2355 (SEQ ID NO: 8) on AEC2 cell viability, surgical biopsies were obtained for the preparation of non-specific interstitial pneumonia precision cut lung slices (PCLS). One individual with non-specific interstitial pneumonia (NSIP) and another with end-stage IPF were processed. Lysotracker staining, which stains acidic compartments in live cells and selectively accumulates in the lamellar bodies of lung AEC2 cells (Van der Velden et al., 2013), was performed. Cav-1 peptide was suspended in DMEM/5% FBS, and PCLS slices (n=5 replicates/treatment group) were treated with 10, 100, or 500 μM LTI-03 or APi2355 (Var 55). Lysotracker staining (Green DND-26, Promega) was performed on NSIP PCLS 48 h after a single treatment. […] In addition, lysotracker staining (Red DND-99, Promega) was performed on end-stage IPF on days 1, 2, 3, 5, and 7 following daily treatment with LTI-03 or APi2355.

For series [4], the system named is AEC2 cells of non-specific interstitial pneumonia (NSIP) precision cut lung slices. The series can be described thus: Lysotracker staining of AEC2 cells in NSIP precision cut lung slices. The settings on record: NSIP PCLS, 48 h after a single treatment with 10, 100, or 500 μM. It is filed as cell-based.
Text: as §1

[5] abbreviates: TBS pH 7.51, compared to other tested peptides.

Non-standard residues stand in square brackets, D forms with d. Residues, ends and D or L forms follow the SMILES beside them. No end group written: not given here. Orn = NCCC[C@H](N)C(=O)O

With `CC(C)[C@H](NC(=O)[C@@H](NC(=O)[C@H](Cc1ccccc1)NC(=O)[C@@H](NC(=O)[C@@H](NC(=O)[C@H](Cc1ccccc1)NC(=O)[C@H](CO)NC(=O)[C@H](C)NC(=O)[C@@H](N)CCCN)[C@@H](C)O)[C@@H](C)O)[C@@H](C)O)C(=O)N[C@H](C(=O)N[C@@H](CCCCN)C(N)=O)[C@@H](C)O` [APi2348, OASFTTFTVTK-NH2] (H-[Orn]ASFTTFTVTK-NH2), the “UV (Abs) at dissolution” value in series [1] was found to be 0.846.

As for `CC(C)[C@H](NC(=O)[C@@H](NC(=O)[C@H](Cc1ccccc1)NC(=O)[C@@H](NC(=O)[C@@H](NC(=O)[C@H](Cc1ccccc1)NC(=O)[C@H](CO)NC(=O)[C@H](C)NC(=O)[C@H](CCCCN)NC(=O)CNC(=O)[C@H](CCC(=O)O)NC(=O)[C@@H](C)NC(=O)[C@@H](C)N)[C@@H](C)O)[C@@H](C)O)[C@@H](C)O)C(=O)N[C@H](C(=O)N[C@@H](CCCCN)C(=O)NCC(=O)N[C@@H](CO)C(=O)N[C@H](C)C(=O)N[C@H](C)C(N)=O)[C@@H](C)O` [APi2354, aaEGKASFTTFTVTKGSaa-NH2] (H-[dA][dA]EGKASFTTFTVTKGS[dA][dA]-NH2), the “solubility at pH 7.51 (in words)” value in series [1] (setting [5]) is “increased solubility”. Moreover, in series [1], the “UV (Abs) after rest” value stood at 0.007 and the “UV (Abs) at dissolution” value came out at 0.008. Besides, in series [2], the “expression of SMA relative to tubulin” value was “increased the expression of SMA relative to tubulin”.

Take `CC(=O)N[C@H](C)C(=O)N[C@H](C)C(=O)N[C@@H](CCC(=O)O)C(=O)NCC(=O)N[C@@H](CCCCN)C(=O)N[C@@H](C)C(=O)N[C@@H](CO)C(=O)N[C@@H](Cc1ccccc1)C(=O)N[C@H](C(=O)N[C@H](C(=O)N[C@@H](Cc1ccccc1)C(=O)N[C@H](C(=O)N[C@H](C(=O)N[C@H](C(=O)N[C@@H](CCCCN)C(=O)NCC(=O)N[C@@H](CO)C(=O)N[C@H](C)C(=O)N[C@H](C)C(N)=O)[C@@H](C)O)C(C)C)[C@@H](C)O)[C@@H](C)O)[C@@H](C)O` [APi2355, Ac-aaEGKASFTTFTVTKGSaa-NH2] (Ac-[dA][dA]EGKASFTTFTVTKGS[dA][dA]-NH2): the “solubility at pH 7.51 (in words)” value in series [1] (setting [5]) was “increased solubility”. In addition, in series [1], the “UV (Abs) after rest” value is 0.000 and the “UV (Abs) at dissolution” value came to 0.000. The “AEC2 cell viability (lysotracker staining)” value in series [3] is “observed out to day 3”. Further, the “expression of SMA relative to tubulin” value in series [2] is on record as “increased the expression of SMA relative to tubulin”. In series [4], the “AEC2 cell viability (lysotracker staining)” value is listed as “strong dose-dependent increase”.

Take “Ac-DSGKASFTTFTVTK-NH2 [APi2353, Ac-DSGKASFTTFTVTK-NH2]”: in series [1], the “UV (Abs) after rest” value worked out at 3.000 and the “UV (Abs) at dissolution” value was found to be 3.000.

For “Ac-KASFTTFTVTK-NH2 [APi2347, Ac-KASFTTFTVTK-NH2]”, in series [1], the “UV (Abs) after rest” value worked out at 2.284 and the “UV (Abs) at dissolution” value came to 2.347.

As for “Ac-KASFTTFTVTKGS-NH2 [APi2351, Ac-KASFTTFTVTKGS-NH2]”, in series [1], the “UV (Abs) after rest” value stood at 2.377 and the “UV (Abs) at dissolution” value amounted to 2.523.

With Ac-OASFTTFTVTK-NH2 [APi2349], in series [1], the “UV (Abs) after rest” value stood at 1.827 and the “UV (Abs) at dissolution” value was determined as 1.870.

As to Ac-OASFTTFTVTOS-NH2 [APi2357], the “UV (Abs) at dissolution” value in series [1] worked out at 2.293.

Turning to “H-DSGKASFTTFTVTK-NH2 [APi2352, DSGKASFTTFTVTK-NH2]”, in series [1], the “UV (Abs) after rest” value came out at 2.398 and the “UV (Abs) at dissolution” value came out at 2.468.

For H-FTTFTVT-NH2 [APi2344, FTTFTVT-NH2], in series [1], the “UV (Abs) after rest” value came out at 1.437 and the “UV (Abs) at dissolution” value is 2.409.

On to H-FTTFTVTK-NH2 [APi2345, FTTFTVTK-NH2], for which the “solubility at pH 7.51 (in words)” value in series [1] (setting [5]) is “dissolution was incomplete”. Moreover, the “UV (Abs) after rest” value in series [1] was 1.058.

Consider “H-KASFTTFTVTK-NH2 [APi2346, KASFTTFTVTK-NH2]”, for which, in series [1], the “UV (Abs) after rest” value amounted to 1.622 and the “UV (Abs) at dissolution” value stood at 1.648.

In the case of KASFTTFTVTKGS-NH2 [APi2350], in series [1] (pH 7.51), the “solubility at pH 7.51 (in words)” value is reported as “increased solubility”. In series [2], the “expression of SMA relative to tubulin” value is “increased the expression of SMA relative to tubulin”.

For the molecule “OASFTTFTVTOS-NH2 ([Orn]ASFTTFTVT[Orn]S-NH2; N-terminus assumed; SMILES CC(C)[C@H](NC(=O)[C@@H](NC(=O)[C@H](Cc1ccccc1)NC(=O)[C@@H](NC(=O)[C@@H](NC(=O)[C@H](Cc1ccccc1)NC(=O)[C@H](CO)NC(=O)[C@H](C)NC(=O)[C@@H](N)CCCN)[C@@H](C)O)[C@@H](C)O)[C@@H](C)O)C(=O)N[C@H](C(=O)N[C@@H](CCCN)C(=O)N[C@@H](CO)C(N)=O)[C@@H](C)O) [APi2356, O = Ornithine]”, in series [1], the “UV (Abs) at dissolution” value is 0.001. For the same molecule, in series [1] (pH 7.51), the “solubility at pH 7.51 (in words)” value is given as “increased solubility”. The “expression of SMA relative to tubulin” value in series [2] is reported as “increased the expression of SMA relative to tubulin”.
